Experimental findings from ChEMBL document CHEMBL4418299, “Compounds useful as csf1 modulators” (2016) are described below.

Sequence of Macrophage colony-stimulating factor 1 receptor (P07333 whole entry, the tested form may be a part): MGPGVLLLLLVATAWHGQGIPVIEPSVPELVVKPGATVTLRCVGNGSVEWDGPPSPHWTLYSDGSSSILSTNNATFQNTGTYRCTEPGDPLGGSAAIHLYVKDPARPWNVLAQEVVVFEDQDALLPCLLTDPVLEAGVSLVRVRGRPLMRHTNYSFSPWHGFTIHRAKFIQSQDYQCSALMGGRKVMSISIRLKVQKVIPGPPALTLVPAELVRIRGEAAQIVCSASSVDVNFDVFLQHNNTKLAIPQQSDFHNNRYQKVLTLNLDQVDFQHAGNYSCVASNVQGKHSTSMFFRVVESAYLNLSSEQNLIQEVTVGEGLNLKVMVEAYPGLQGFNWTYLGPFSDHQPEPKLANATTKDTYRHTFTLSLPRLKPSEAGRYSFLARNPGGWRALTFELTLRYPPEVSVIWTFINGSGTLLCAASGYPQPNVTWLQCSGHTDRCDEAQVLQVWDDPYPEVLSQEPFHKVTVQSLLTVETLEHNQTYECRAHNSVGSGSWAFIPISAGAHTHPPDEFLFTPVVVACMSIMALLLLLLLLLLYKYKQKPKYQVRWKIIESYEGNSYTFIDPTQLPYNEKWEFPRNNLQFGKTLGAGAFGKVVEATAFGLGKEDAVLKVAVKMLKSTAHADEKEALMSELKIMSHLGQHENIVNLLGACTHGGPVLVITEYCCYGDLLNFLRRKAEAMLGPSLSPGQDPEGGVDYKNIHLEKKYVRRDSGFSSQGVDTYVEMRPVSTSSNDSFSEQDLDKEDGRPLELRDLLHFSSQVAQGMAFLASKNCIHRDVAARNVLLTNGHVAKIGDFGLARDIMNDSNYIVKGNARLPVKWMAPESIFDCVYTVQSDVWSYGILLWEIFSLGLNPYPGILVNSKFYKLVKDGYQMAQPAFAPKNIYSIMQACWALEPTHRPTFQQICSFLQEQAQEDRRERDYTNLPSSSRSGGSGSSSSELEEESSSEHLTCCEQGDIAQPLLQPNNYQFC

The test concerns the target Macrophage colony-stimulating factor 1 receptor (Homo sapiens, UniProt P07333). The experiment in a line: Displacement of kinase tracer 236 from recombinant human His-tagged CSF1R cytoplasmic domain (538 to 910 residues) expressed in baculovirus-infected insect cells measured after 5 hrs by TR-FRET based LanthaScreen assay.
For the compound `Nc1ncnc2c3c(n(-c4ccc(NC(=O)Cc5cnn(-c6ccccc6)c5)cc4)c12)CCC3`, the IC50 lay in the range of 0.01 to 0.2 µM. For `Nc1ncnc2c3c(n(-c4ccc(NC(=O)C(F)c5ccccc5)cc4)c12)CCC3` (stereo not drawn) the value was greater than 0.2 µM.

As for `Cc1ccc(F)c(CC(=O)Nc2ccc(-n3c4c(c5ncnc(N)c53)COC4)cc2F)c1`, the IC50 is greater than 0.2 µM. Consider `COc1cc(-n2c3c(c4ncnc(N)c42)CCC3)ccc1NC(=O)Cc1ccc(C(F)(F)F)nc1`, for which the IC50 is less than 0.01 µM. For the compound `COc1cc(-n2c3c(c4ncnc(N)c42)CCC3)ccc1CC(=O)N1CCOc2ccccc21`, the IC50 is less than 0.01 µM. Consider `COc1ccc(CC(=O)Nc2ccc(-n3c4c(c5ncnc(N)c53)CCC4)cc2OC)nc1`, for which the IC50 was 0.01 to 0.2 µM. For `Nc1ncnc2c3c(n(-c4ccc(NC(=O)Cc5ccnc(C(F)(F)F)c5)cc4)c12)COC3`, the IC50 was 0.01 to 0.2 µM. On to `COc1cc(-n2c3c(c4ncnc(N)c42)COC3)ccc1NC(=O)Cc1cc(C)ccc1F`, for which the IC50 lay in the range of 0.01 to 0.2 µM. For the compound `COc1ccc(CC(=O)Nc2ccc(-n3c4c(c5ncnc(N)c53)COC4)cc2)c(F)c1`, the IC50 lay within 0.01 to 0.2 µM. Turning to `Nc1ncnc2c3c(n(-c4ccc(CC(=O)Nc5cnc(C(F)(F)F)nc5)cc4)c12)CCC3`, the IC50 was 0.01 to 0.2 µM. As for `Nc1ncnc2c3c(n(-c4ccc(NC(=O)Cc5ccc(Cl)c(C(F)(F)F)c5)cc4)c12)CCC3`, the IC50 is 0.014 µM. On to `COc1cc(-n2c3c(c4ncnc(N)c42)COC3)ccc1NC(=O)Cc1ccc(C(F)(F)F)nc1`, for which the IC50 lay within 0.01 to 0.2 µM. For `Nc1ncnc2c3c(n(-c4ccc(NC(=O)Cc5coc(-c6ccccc6)n5)cc4)c12)CCC3` the value was 0.01 to 0.2 µM.

Consider `COc1cc(CC(=O)Nc2ccc(-n3c4c(c5ncnc(N)c53)CCC4)cc2OC)ccc1C`, for which the IC50 is less than 0.01 µM.

As to `Nc1ncnc2c3c(n(-c4ccc(NC(=O)Cc5cc(C(F)(F)F)ccc5Cl)cc4)c12)CCC3`, the IC50 fell in the range of 0.01 to 0.2 µM. For `COc1cc(-n2c3c(c4ncnc(N)c42)CCC3)ccc1NC(=O)Cc1ccc(Cl)c(C(F)(F)F)c1` the value was 0.01 to 0.2 µM; for `COc1cc(-n2c3c(c4ncnc(N)c42)COC3)ccc1NC(=O)Cc1ccccc1`, less than 0.01 µM; for `Nc1ncnc2c3c(n(-c4ccc(CC(=O)NCc5ccccc5)cc4)c12)CCC3`, 0.01 to 0.2 µM. For `CN1CCN(CC(=O)Nc2ccc(-n3c4c(c5ncnc(N)c53)CCC4)cc2)CC1` the value was greater than 0.2 µM; for `Nc1ncnc2c3c(n(-c4ccc(NC(=O)Cc5ccccc5)nc4)c12)CCC3`, greater than 0.2 µM. For `COc1ccccc1CC(=O)Nc1ccc(-n2c3c(c4ncnc(N)c42)CCC3)cc1` the value was less than 0.01 µM. For the compound `COc1cc(-n2c3c(c4ncnc(N)c42)COC3)ccc1NC(=O)Cc1cnc2c(ccn2C)c1`, the IC50 stood at 0.032 µM. Take `COc1cc(-n2c3c(c4ncnc(N)c42)CCC3)ccc1CC(=O)Nc1ccccc1`: the IC50 lay in the range of 0.01 to 0.2 µM. For `Nc1ncnc2c3c(n(-c4ccc(CC(=O)Nc5cccnc5)cc4)c12)CCC3` the value was greater than 0.2 µM; for `COc1ccc(CC(=O)Nc2ccc(-n3c4c(c5ncnc(N)c53)COC4)cc2F)c(F)c1`, greater than 0.2 µM.

For the compound `Nc1ncnc2c3c(n(-c4ccc(NC(=O)Cc5ccc(C(F)(F)F)nc5)cc4)c12)COC3`, the IC50 fell in the range of 0.01 to 0.2 µM. For `Cc1ccc(CC(=O)Nc2ccc(-n3c4c(c5ncnc(N)c53)COC4)cc2)cc1F` the value was 0.01 to 0.2 µM.

`COc1cc(-n2c3c(c4ncnc(N)c42)CCC3)ccc1NC(=O)Cc1ccnc(C(F)(F)F)c1`: the IC50 was less than 0.01 µM. Regarding `Nc1ncnc2c3c(n(-c4ccc(NC(=O)Cc5ccc(O)cc5)cc4)c12)CCC3`, the IC50 is 0.029 µM. Take `COc1cc(-n2c3c(c4ncnc(N)c42)CCC3)ccc1NC(=O)Cc1ccccn1`: the IC50 is less than 0.01 µM. For `COc1cc(-n2c3c(c4ncnc(N)c42)CCC3)ccc1NC(=O)Cc1cnccn1` the value was greater than 0.2 µM; for `Cn1cc(CCC(=O)Nc2ccc(-n3c4c(c5ncnc(N)c53)CCC4)cc2)c2ccccc21`, 0.01 to 0.2 µM. `COc1ccc(NC(=O)Cc2ccc(-n3c4c(c5ncnc(N)c53)CCC4)cc2)nn1`: the IC50 is greater than 0.2 µM. In the case of `Cn1ccc2cc(CC(=O)Nc3ccc(-n4c5c(c6ncnc(N)c64)CCC5)cc3)cnc21`, the IC50 is less than 0.01 µM. For `NC(=O)c1ccc(CC(=O)Nc2ccc(-n3c4c(c5ncnc(N)c53)CCC4)cc2)cc1C(F)(F)F` the value was 0.01 to 0.2 µM; for `COc1cccc(CC(=O)Nc2ccc(-n3c4c(c5ncnc(N)c53)CCC4)cc2OC)n1`, 0.01 to 0.2 µM; for `CN(C)c1cc(CC(=O)Nc2ccc(-n3c4c(c5ncnc(N)c53)CCC4)cc2)ccc1C(F)(F)F`, 0.01 to 0.2 µM. `Nc1ncnc2c3c(n(-c4ccc(NC(=O)CCCN5CCOCC5)cc4)c12)CCC3`: the IC50 fell in the range of 0.01 to 0.2 µM. As for `COc1ccc(NC(=O)Cc2ccc(-n3c4c(c5ncnc(N)c53)CCC4)cc2OC)c(F)c1`, the IC50 was less than 0.01 µM.

For the compound `COc1cc(-n2c3c(c4ncnc(N)c42)COC3)ccc1NC(=O)Cc1cc(C(F)(F)F)ccc1F`, the IC50 was in the range of 0.01 to 0.2 µM. For `Nc1ncnc2c3c(n(-c4ccc(NC(=O)Cc5c(F)cc(Cl)cc5F)cc4)c12)CCC3` the value was 0.01 to 0.2 µM. In the case of `N#Cc1ccc(CC(=O)Nc2ccc(-n3c4c(c5ncnc(N)c53)CCC4)cc2)cc1`, the IC50 is less than 0.01 µM. Regarding `Nc1ncnc2c3c(n(-c4ccc(NC(=O)CC5CCN(C(=O)OCc6ccccc6)CC5)cc4)c12)CCC3`, the IC50 was in the range of 0.01 to 0.2 µM.

Turning to `COc1cc(-n2c3c(c4ncnc(N)c42)CCC3)ccc1NC(=O)Cc1ccc(C(F)(F)F)nn1`, the IC50 came to 0.009 µM.

Take `Nc1ncnc2c3c(n(-c4ccc(NC(=O)Cc5cccnc5)cc4)c12)CCC3`: the IC50 lay in the range of 0.01 to 0.2 µM.

Turning to `COc1cc(-n2c3c(c4ncnc(N)c42)CCC3)ccc1NC(=O)Cc1cc(C(F)(F)F)ccc1F`, the IC50 lay within 0.01 to 0.2 µM. For the compound `Nc1ncnc2c3c(n(-c4ccc(NC(=O)Cc5ccccc5)c(F)c4)c12)CCC3`, the IC50 is greater than 0.2 µM.

For `COc1cc(-n2c3c(c4ncnc(N)c42)CCC3)ccc1NC(=O)Cc1ccccc1`, the IC50 lay within 0.01 to 0.2 µM. For `COc1cc(-n2c3c(c4ncnc(N)c42)COC3)ccc1NC(=O)Cc1ccnc(C(F)(F)F)c1` the value was 0.05 µM. For `COc1cc(-n2c3c(c4ncnc(N)c42)CCC3)ccc1NC(=O)Cc1ccc2c(ccn2C)c1` the value was less than 0.01 µM; for `Cn1ccc(CC(=O)Nc2ccc(-n3c4c(c5ncnc(N)c53)CCC4)cc2)n1`, greater than 0.2 µM; for `Nc1ncnc2c3c(n(-c4ccc(NC(=O)[C@@H](N)Cc5ccccc5)cc4)c12)CCC3`, greater than 0.2 µM. With `COc1cc(-n2c3c(c4ncnc(N)c42)CCC3)ccc1NC(=O)Cc1ccc(C)cc1F`, the IC50 was less than 0.01 µM. With `Nc1ncnc2c3c(n(-c4ccc(NC(=O)Cc5ccc6c(c5)OCO6)cc4)c12)CCC3`, the IC50 was 0.01 to 0.2 µM.

Take `Nc1ncnc2c3c(n(-c4ccc(CC(=O)NC5CCCCC5)cc4)c12)CCC3`: the IC50 was 0.01 to 0.2 µM. On to `COc1ccc(CC(=O)Nc2ccc(-n3c4c(c5ncnc(N)c53)CCC4)cc2OC)cn1`, for which the IC50 fell in the range of 0.01 to 0.2 µM.

For the compound `COc1ccc(CC(=O)Nc2ccc(-n3c4c(c5ncnc(N)c53)COC4)cc2)cc1F`, the IC50 is 0.014 µM. Regarding `COc1cc(-n2c3c(c4ncnc(N)c42)CCC3)ccc1NC(=O)Cc1cc(C)no1`, the IC50 is 0.01 to 0.2 µM. Regarding `Cc1cnc(CC(=O)Nc2ccc(-n3c4c(c5ncnc(N)c53)CCC4)cc2)c(F)c1`, the IC50 fell in the range of 0.01 to 0.2 µM. For `COc1ccc(CC(=O)Nc2ccc(-n3c4c(c5ncnc(N)c53)CCC4)cc2OC)cc1C`, the IC50 was less than 0.01 µM. Take `COc1cc(-n2c3c(c4ncnc(N)c42)CCC3)ccc1NC(=O)Cc1ccc(C)c(F)c1`: the IC50 is less than 0.01 µM.

`Nc1ncnc2c3c(n(-c4ccc(NC(=O)Cc5ccccc5)cc4)c12)COC3`: the IC50 is less than 0.01 µM. Regarding `COc1cc(-n2c3c(c4ncnc(N)c42)CCC3)ccc1NC(=O)Cc1cnc2c(ccn2C)c1`, the IC50 is less than 0.01 µM. With `COc1cc(-n2c3c(c4ncnc(N)c42)COC3)ccc1NC(=O)Cc1ccc(Cl)c(C(F)(F)F)c1`, the IC50 is less than 0.01 µM.

For the compound `COc1ccc(CC(=O)Nc2ccc(-n3c4c(c5ncnc(N)c53)COC4)cc2OC)cn1`, the IC50 was in the range of 0.01 to 0.2 µM. Take `COc1cc(-n2c3c(c4ncnc(N)c42)CCC3)ccc1NC(=O)Cc1ncc(C)cc1F`: the IC50 lay within 0.01 to 0.2 µM. On to `COc1ccc(CC(=O)Nc2ccc(-n3c4c(c5ncnc(N)c53)COC4)cc2OC)cc1F`, for which the IC50 lay within 0.01 to 0.2 µM.

For the compound `Nc1ncnc2c3c(n(-c4ccc(NC(=O)Cc5ccncc5)cc4)c12)CCC3`, the IC50 is greater than 0.2 µM.

As for `Nc1ncnc2c3c(n(-c4ccc(NC(=O)CN5CCCC5)cc4)c12)CCC3`, the IC50 was greater than 0.2 µM. For the compound `Nc1ncnc2c3c(n(-c4ccc(NC(=O)Cc5ccc(C(F)(F)F)nn5)cc4)c12)COC3`, the IC50 lay in the range of 0.01 to 0.2 µM. Regarding `COc1cc(-n2c3c(c4ncnc(N)c42)CCC3)ccc1NC(=O)Cc1coc(-c2ccccc2)n1`, the IC50 is 0.01 to 0.2 µM.

In the case of `CC(=O)N1CCC(CC(=O)Nc2ccc(-n3c4c(c5ncnc(N)c53)CCC4)cc2)CC1`, the IC50 was greater than 0.2 µM. As to `Nc1ncnc2c3c(n(-c4ccc(NC(=O)CN5CCOCC5)cc4)c12)CCC3`, the IC50 was greater than 0.2 µM. Turning to `Nc1ncnc2c3c(n(-c4ccc(NC(=O)Cn5ccnc5)cc4)c12)CCC3`, the IC50 is greater than 0.2 µM. On to `Nc1ncnc2c3c(n(-c4ccc(NC(=O)CCc5ccccc5)cc4)c12)CCC3`, for which the IC50 fell in the range of 0.01 to 0.2 µM. `Nc1ncnc2c3c(n(-c4ccc(NC(=O)Cc5ccc(Cl)nn5)cc4)c12)COC3`: the IC50 was greater than 0.2 µM. For `COc1ccc(CC(=O)Nc2ccc(-n3c4c(c5ncnc(N)c53)CCC4)cc2OC)cc1F` the value was less than 0.01 µM; for `COc1cc(-n2c3c(c4ncnc(N)c42)COC3)ccc1NC(=O)Cc1ccc(OC)c(C(F)(F)F)c1`, less than 0.01 µM. For `COc1cc(-n2c3c(c4ncnc(N)c42)COC3)ccc1NC(=O)Cc1ccc(C(F)(F)F)nn1` the value was 0.01 to 0.2 µM. For the compound `Cn1cc(CC(=O)Nc2ccc(-n3c4c(c5ncnc(N)c53)CCC4)cc2)cn1`, the IC50 was 0.01 to 0.2 µM. For the compound `Nc1ncnc2c3c(n(-c4ccc(NC(=O)[C@@H](N)c5ccccc5)cc4)c12)CCC3`, the IC50 was greater than 0.2 µM. For `COc1cccc(CC(=O)Nc2ccc(-n3c4c(c5ncnc(N)c53)CCC4)cc2)n1` the value was 0.01 to 0.2 µM. `Cn1cc(C(=O)Nc2ccc(-n3c4c(c5ncnc(N)c53)CCC4)cc2)c2ccccc21`: the IC50 was in the range of 0.01 to 0.2 µM.
